Experimental data: US20260265321A1, “PEPTIDE AND POLYPEPTIDE INHIBITING THE NF-KB SIGNALING PATHWAY” (Centre National de la Recherche Scientifique, priority 2023, published 2026)
Read-outs that look alike come from different tables or passages of the source. Residues, ends and D or L forms follow the SMILES beside them.

Legend:
IKKβ(1-669) EE homodimer = target: T1, IKKβ(1-669) EE homodimer (Homo sapiens, UniProt O14920, S177E/S181E); assay: Isothermal titration calorimetry (ITC) of peptide binding to IKKβ homodimer; conditions: for N (binding stoichiometry of IKKβ: pep) / TΔS / ΔG / ΔH: 25° C.; for N (binding stoichiometry of IKKβ: pep): 1:1 binding model
T1 construct: a nearly full-length (residues 1-669) and constitutively active (S177E/S181E) mutant construct of human IKKβ; 6×His (followed by TEV site) (N, cleaved yes); made in house; host or cells: Sf21 insect cells (baculovirus)
T1 sequence (O14920 1-669 S177E/S181E): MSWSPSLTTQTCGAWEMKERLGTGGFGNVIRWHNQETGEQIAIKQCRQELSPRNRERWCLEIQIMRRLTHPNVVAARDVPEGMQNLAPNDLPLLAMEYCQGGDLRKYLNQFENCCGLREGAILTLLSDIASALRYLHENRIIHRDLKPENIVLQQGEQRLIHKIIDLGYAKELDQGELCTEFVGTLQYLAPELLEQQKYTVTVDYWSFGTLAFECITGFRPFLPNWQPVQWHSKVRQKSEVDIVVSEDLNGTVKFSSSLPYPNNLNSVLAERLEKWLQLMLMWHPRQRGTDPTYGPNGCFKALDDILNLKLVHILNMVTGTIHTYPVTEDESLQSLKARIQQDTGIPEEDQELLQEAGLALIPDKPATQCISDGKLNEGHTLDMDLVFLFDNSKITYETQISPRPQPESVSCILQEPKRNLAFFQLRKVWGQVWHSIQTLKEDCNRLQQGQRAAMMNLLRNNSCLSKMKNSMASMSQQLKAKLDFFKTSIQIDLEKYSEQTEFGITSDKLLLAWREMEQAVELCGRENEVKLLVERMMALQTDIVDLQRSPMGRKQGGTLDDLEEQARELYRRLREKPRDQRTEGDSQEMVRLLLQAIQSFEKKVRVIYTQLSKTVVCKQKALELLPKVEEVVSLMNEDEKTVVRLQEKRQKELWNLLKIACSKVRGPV
Procedure: All experiments were performed in ITC buffer (20 mM HEPES pH 8.0, 150 mM NaCl, 1 mM TCEP) unless otherwise stated. Purified IKKα(10-667) EE and IKKβ(1-669) EE protein samples were dialyzed overnight against ITC buffer at 4° C. Just before the ITC experiments, IKKα or IKKβ samples were concentrated, incubated at room temperature for 30 minutes and centrifuged at 11000 g to remove eventual precipitate. The final concentrations of IKKα and IKKβ in the sample cell varied between 22 and 50 μM depending on the measurement. HPLC purified synthetic peptides (IκBα pep) comprising residues 297-317 of IκBα were further desalted using a Nap5 (GE Healthcare, #17-0853-01) column equilibrated in milliQ water, lyophilized and then resuspended in ITC buffer. The concentration of peptides in the syringe varied between 220 and 975 μM depending on the measurement.
All ITC measurements were performed using a PEAQ-ITC MALVERN instrument. The titration parameters were set as following: temperature 25° C., reference power 10 μcal/s, feedback=high, stirring speed 750 RPM, initial delay 60 s, first injection 0.4 μl in 0.8 s and the remaining 19 injections were 2 μL in 4 s with 120 s of spacing. The data were fitted to a 1:1 binding model. All data were processed using NITPIC software and global fitting of two datasets was carried out using SEDPHAD.
To evaluate binding affinities, isothermal titration calorimetry (ITC) experiments were performed using a synthetic peptide that comprises the YDDφXφ motif plus the N-terminal acidic patch (residues 297-317, named IκBα pep hereafter) and purified IKKβ(1-669) EE homodimer or an equivalent construct of the IKKα homodimer (i.e. IKKα(10-667) S176E/S180E, named IKKα(10-667) EE hereafter). […] ITC analyses on the IKKα/β heterodimer were prevented by strong aggregation propensity at the concentrations required for these experiments.
All ITC experiments were performed at 25° C. The data were fitted to a 1:1 binding model. N refers to the binding stoichiometry of IKKα/β: pep, meaning that approximately half of total IKKα/β concentration binds pep ligand in agreement with the dimer form of IKKα/β being binding competent. The values for the IKKα interaction with IRF7 pep should be regarded as estimates due to low affinity and weakly exothermic binding, and therefore high experimental error and fitting uncertainty. All data were processed using NITPIC software and global fitting of two datasets was carried out using SEDPHAD.

[1] = target: T2, endogenous IKK immunoprecipitated from HEK293T cells (Homo sapiens, UniProt O14920+O15111); assay: In vitro kinase assay with endogenous IKK, inhibition by synthetic peptides; format: biochemical; conditions: 500 μM synthetic peptide, 1 μM 6×His-IκBα wt, 30° C.
T2 construct: endogenous canonical IKK, which was immunoprecipitated from HEK293T cells using an anti-NEMO antibody; endogenous in cells; host or cells: HEK293T cells induced with TNFα; anti-NEMO immunoprecipitate on protein G beads
T2 sequence (O14920 whole entry): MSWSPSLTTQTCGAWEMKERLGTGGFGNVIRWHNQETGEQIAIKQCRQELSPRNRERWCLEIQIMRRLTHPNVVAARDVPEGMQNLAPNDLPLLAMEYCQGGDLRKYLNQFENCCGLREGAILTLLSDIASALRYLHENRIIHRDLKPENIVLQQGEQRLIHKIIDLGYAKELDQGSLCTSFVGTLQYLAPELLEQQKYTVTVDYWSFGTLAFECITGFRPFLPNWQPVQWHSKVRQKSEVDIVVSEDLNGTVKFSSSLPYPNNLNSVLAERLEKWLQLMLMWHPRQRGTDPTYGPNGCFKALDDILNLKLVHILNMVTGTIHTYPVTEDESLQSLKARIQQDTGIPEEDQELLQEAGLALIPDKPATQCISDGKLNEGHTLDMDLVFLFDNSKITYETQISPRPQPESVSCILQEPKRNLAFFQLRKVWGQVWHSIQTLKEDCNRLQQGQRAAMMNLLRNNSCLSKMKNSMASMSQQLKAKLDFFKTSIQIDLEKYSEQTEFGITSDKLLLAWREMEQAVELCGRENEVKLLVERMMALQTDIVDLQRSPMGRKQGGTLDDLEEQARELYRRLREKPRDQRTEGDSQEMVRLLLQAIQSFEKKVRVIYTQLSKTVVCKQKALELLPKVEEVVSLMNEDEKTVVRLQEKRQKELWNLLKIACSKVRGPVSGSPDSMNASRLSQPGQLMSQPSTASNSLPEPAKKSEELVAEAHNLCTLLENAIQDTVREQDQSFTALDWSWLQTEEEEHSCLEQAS
T2 sequence (O15111 whole entry): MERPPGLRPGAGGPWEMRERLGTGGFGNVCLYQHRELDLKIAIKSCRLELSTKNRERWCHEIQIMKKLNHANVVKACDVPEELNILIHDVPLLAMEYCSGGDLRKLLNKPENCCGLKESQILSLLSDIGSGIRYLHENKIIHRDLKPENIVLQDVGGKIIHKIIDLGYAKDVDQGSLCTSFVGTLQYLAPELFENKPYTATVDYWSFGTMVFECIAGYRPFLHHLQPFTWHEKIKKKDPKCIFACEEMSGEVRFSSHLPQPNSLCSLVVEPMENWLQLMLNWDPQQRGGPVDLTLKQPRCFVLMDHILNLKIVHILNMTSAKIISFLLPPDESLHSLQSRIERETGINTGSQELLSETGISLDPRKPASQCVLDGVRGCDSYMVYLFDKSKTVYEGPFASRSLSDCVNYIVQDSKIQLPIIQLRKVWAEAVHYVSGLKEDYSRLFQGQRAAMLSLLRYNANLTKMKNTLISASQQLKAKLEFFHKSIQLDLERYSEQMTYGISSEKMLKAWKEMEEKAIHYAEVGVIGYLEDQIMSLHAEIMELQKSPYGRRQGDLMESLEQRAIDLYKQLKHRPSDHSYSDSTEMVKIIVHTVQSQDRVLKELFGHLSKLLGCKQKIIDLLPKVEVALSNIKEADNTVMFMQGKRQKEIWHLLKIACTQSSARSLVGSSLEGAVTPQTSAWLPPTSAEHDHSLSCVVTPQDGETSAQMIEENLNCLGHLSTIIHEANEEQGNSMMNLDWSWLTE
T2 sequence (Q9Y6K9 whole entry partner): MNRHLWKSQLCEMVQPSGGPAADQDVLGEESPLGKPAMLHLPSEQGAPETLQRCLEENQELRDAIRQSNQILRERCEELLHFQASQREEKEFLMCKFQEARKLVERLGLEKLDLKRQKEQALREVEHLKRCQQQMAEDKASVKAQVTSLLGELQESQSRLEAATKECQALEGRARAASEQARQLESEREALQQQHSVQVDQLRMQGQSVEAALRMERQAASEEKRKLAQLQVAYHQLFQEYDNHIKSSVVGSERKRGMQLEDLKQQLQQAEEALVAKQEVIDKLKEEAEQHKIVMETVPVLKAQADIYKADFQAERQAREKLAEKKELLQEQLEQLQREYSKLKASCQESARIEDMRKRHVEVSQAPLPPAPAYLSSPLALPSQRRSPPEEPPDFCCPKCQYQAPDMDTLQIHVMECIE
Procedure: Using endogenous IKK complex. IKK was immunoprecipitated from HEK293T cells. 3 petri dishes (100×15 mm, corning) of cells at 70% confluence were induced with 10 nM recombinant TNFα (abcam, #ab9642) for 10 minutes, and then washed twice by cold PBS. The whole-cell extracts were prepared by addition of 1 ml of lysis buffer (50 mM HEPES pH 8, 200 mM NaCl, 0.5% NP-40, 1 mM EDTA, 10 mM KCl, 1 mM DTT, Roche cOmplete™ protease inhibitors cocktail, 50 mM NaF, 50 mM b-glycerophosphate and 1 mM Na orthovanadate) and homogenized by passing through a 21-gauge needle for 5-10 times. After 30 minutes of incubation on ice, the extracts were centrifuged at 11,000 g and at 4° C. The cleared supernatants were incubated with 15 μl of anti-NEMO antibody (Santa Cruz biotech, #F-10) overnight at 4° C. and, then, immunoprecipitated with 150 μl of protein G Sepharose beads (GE, #17-0618-01) for 2 hours at 4° C. […]
Kinase activity reactions were performed in kinase buffer (defined above) using 50 μl immunoprecipitant and 1 μM of purified full-length 6×His-IκBα wt or mutant constructs. […] The reaction products were analysed on a 10% SDS-PAGE gel and Western blotting using anti-phospho-IκBα (Cell Signaling Technology, #9246), anti-IKKβ (cell signaling, #2684s) and anti-6×His (sigma, #SAB4301134) antibodies. The relative amounts of phosphorylated IκBα were quantified using ImageJ.

With `CC(C)C[C@H](NC(=O)[C@@H](NC(=O)[C@H](CC(C)C)NC(=O)[C@H](CCCNC(=N)N)NC(=O)[C@H](CCC(N)=O)NC(=O)CNC(=O)CNC(=O)[C@H](Cc1ccccc1)NC(=O)[C@@H](NC(=O)[C@H](CS)NC(=O)[C@H](CC(=O)O)NC(=O)[C@H](CC(=O)O)NC(=O)[C@H](Cc1ccc(O)cc1)NC(=O)[C@@H]1CCCN1C(=O)[C@H](CC(C)C)NC(=O)[C@H](CCC(=O)O)NC(=O)[C@H](CC(=O)O)NC(=O)[C@H](CCC(=O)O)NC(=O)[C@@H](NC(=O)[C@H](Cc1ccccc1)NC(=O)[C@@H](N)CCC(=O)O)[C@@H](C)O)C(C)C)[C@@H](C)O)C(=O)O` [IκBα pep] (H-EFTEDELPYDDCVFGGQRLTL-OH; N-terminus and C-terminus assumed) the Kd (IKKβ(1-669) EE homodimer) was 40 µM, the “N (binding stoichiometry of IKKβ: pep)” value (IKKβ(1-669) EE homodimer; ITC) was 0.58 and the TΔS (IKKβ(1-669) EE homodimer; ITC, IKKβ) was -9.78 kcal/mol. The ΔG (IKKβ(1-669) EE homodimer; ITC, IKKβ) was -6.00 kcal/mol, the ΔH (IKKβ(1-669) EE homodimer; ITC, IKKβ) was -15.8 kcal/mol and the “inhibition of IκBα phosphorylation (Ser32/Ser36)” value [1] was “inhibit IκBα phosphorylation more efficiently than the YD/SS negative control peptide”.
`CC(C)C[C@H](NC(=O)[C@@H](NC(=O)[C@H](CC(C)C)NC(=O)[C@H](CCCNC(=N)N)NC(=O)[C@H](CCC(N)=O)NC(=O)CNC(=O)CNC(=O)[C@H](Cc1ccccc1)NC(=O)[C@@H](NC(=O)[C@H](CC(C)C)NC(=O)[C@H](CC(=O)O)NC(=O)[C@H](CC(=O)O)NC(=O)[C@H](Cc1ccc(O)cc1)NC(=O)[C@@H]1CCCN1C(=O)[C@H](CC(C)C)NC(=O)[C@H](CCC(=O)O)NC(=O)[C@H](CC(=O)O)NC(=O)[C@H](CCC(=O)O)NC(=O)[C@@H](NC(=O)[C@H](Cc1ccccc1)NC(=O)[C@@H](N)CCC(=O)O)[C@@H](C)O)C(C)C)[C@@H](C)O)C(=O)O` [IkBα pep C308L] (H-EFTEDELPYDDLVFGGQRLTL-OH; N-terminus and C-terminus assumed) was tested, and the “enhancement of affinity to IKKβ relative to IκBα pep wt” value (IKKβ(1-669) EE homodimer; ITC) was 15 fold, the “N (binding stoichiometry of IKKβ: pep)” value (IKKβ(1-669) EE homodimer; ITC) was 0.63 and the TΔS (IKKβ(1-669) EE homodimer; ITC, IKKβ) was -4.59 kcal/mol. The ΔG (IKKβ(1-669) EE homodimer; ITC, IKKβ) was -7.61 kcal/mol, the ΔH (IKKβ(1-669) EE homodimer; ITC, IKKβ) was -12.2 kcal/mol and the Kd (IKKβ(1-669) EE homodimer; ITC, IKKβ, read-out: KD) was 2.6 µM. For the same compound, the “inhibition of IκBα phosphorylation (Ser32/Ser36)” value [1] was “inhibit IκBα phosphorylation more efficiently than the YD/SS negative control peptide”.
